# Assay results as given in patent US20210059961A1, “CANNABINOID DOSING REGIME FOR ACNE” (priority 2018, published 2021).
# Legend:
# [1] = molecular target: human vanilloid receptor type 1 (VR1) (Homo sapiens, UniProt Q8NER1); details: in vitro; cited from earlier work
# cardiac inflammation = details: injected into rats; cited from earlier work
# [2] = Skin permeation of CBD, Franz-type diffusion cell; type: in vitro ADME
# Method: Dermatomed skin from a single donor was mounted in a Franz-type diffusion cell (0.55 cm^2 receptor fluid exposure surface area) and dosed with 5 ul of 2-[3-methyl-6-(1-methylethenyl)-2-cyclohexen-1-yl]-5-pentyl-1,3-benzenediol (CBD), BTX 1503 5% Solution, formulated in an mixture of a volatile solvent (hexylmethyldisiloxane/polymethylsiloxane—93% w/w), and residual solvent (arlamol E—2% w/w) at a concentration of 5.0% (w/w; 35.5 mg/ml). Following dosing, receptor phase samples were collected at 4, 10, 24 and 48 hours; after which the study was terminated.
# The residual formulation was removed by tape stripping and the epidermis and dermis separated by blunt dissection. The levels of CBD in the epidermis, dermis, and receptor fluid samples were then analyzed using a bioanalytical method with LC-MS/MS detection.
# airway obstruction = details: intravenous, sensitized guinea-pigs; cited from earlier work
# anandamide = details: in vitro; cited from earlier work
# [3] = Open-label study in patients with acne vulgaris: study drug plasma levels; type: in vivo, human
# Source text: Eligible subjects were enrolled within 14 days after the Screening Visit. Assessments for safety (CBC, chemistry, urinalysis, and vital signs) were obtained at the Baseline Visit (Day 1). If the Screening and Baseline Visits were not conducted on the same day, a UPT for WOCBP, lesion counts on the face, an Investigator's Global Assessment (IGA) for facial acne and a UDS were repeated. Baseline photographs of the face and a blood sample for Baseline study drug plasma levels were obtained. […] Cutaneous tolerability assessments were conducted at one hour after the first application. […]
# Safety was the primary outcome measure. The safety outcomes were measured through assessment of: • AEs monitored from time of consent through the end of study. • Cutaneous tolerability (erythema, scaling, dryness, burning/stinging, and irritant/allergic contact dermatitis) collected at Baseline, Day 14, Day 28, and Day 35 and graded using the following scale: 0, None; 1, Slight; 2, Moderate; 3, Severe. • Vital signs (temperature, blood pressure, and pulse) obtained at Baseline, Day 14, Day 28 and Day 35. • Complete blood count (CBC), chemistry, and urinalysis at Baseline and at Day 28. Blood levels of study drug will be measured at Baseline and prior to dosing (trough level) on Day 14, Day 28, and Day 35. […]
# [4] = Healthy volunteer study of single and multiple-dose BTX 1503 5% Solution (BTX.2017.001): pharmacokinetics, safety; type: in vivo, human; details: for mean CBD trough level Day 15: multiple dose phase
# Method: The pharmacokinetics (PK) of single and multiple-dose administration of BTX 1503 5% Solution were evaluated in a healthy volunteer study. In this study, BTX 1503 5% Solution was applied as a single dose either QD or BID (12 hrs apart) on Day 1 followed by a 6-day washout period, then either QD or BID for 14 days (Day 8 to Day 21). Five subjects were enrolled in each cohort and doses were escalated for each sequential cohort enrolled with the following doses. • Cohort 1: 37.5 mg CBD/day or 0.066 mg/cm^2/day^a applied as 1 mL of BTX 1503 5% (w/w) QD • Cohort 2: 75 mg CBD/day or 0.133 mg/cm^2/day applied as 1 mL BTX 1503 5% (w/w) BID • Cohort 3: 112.5 mg CBD/day or 0.199 mg/cm^2/day applied as 3 mL of BTX 1503 5% (w/w) QD • Cohort 4: 225 mg CBD/day or 0.398 mg/cm^2/day applied as 3 mL of BTX 1503 5% (w/w) BID Area of application assumed to be 565 cm^2 (i.e., on the face), which is reported by the European Union Scientific Committee on Consumer Safety (SCCS) to be half of the surface area for a female head (SCCS Notes of Guidance for the Testing of Cosmetic Substances and Their Safety Evaluation, 8th edition, 2012; Table 2).
# Blood samples were taken for PK assessments on Day 1 (Baseline) at pre-dose (15 mins before dosing), 30, 60 and 90 mins and 2, 2.5, 3, 4, 6, 8 and 12 hrs, and 24 hrs after the first single dose. For participants that received BID dosing, samples were also taken at 30, 60 and 90 mins and 2, 2.5, 3, 4, 6, and 8 hrs after the second dose on Day 1.
# During the multiple dose (14-day) phase, trough levels were obtained before the morning application on Day 15. On Day 21, blood samples were taken for PK assessments at pre-dose (15 mins before dosing), 30, 60 and 90 mins and 2, 2.5, 3, 4, 6, 8 and 12 hrs, 24 hrs and 48 hrs after the morning dose. For participants that received BID dosing, samples were also be taken at 30, 60 and 90 mins and 2, 2.5, 3, 4, 6, and 8 hrs after the second dose on Day 21. A sample was obtained on Day 23, 48 hrs after the last morning dose. […]
# [5] = tested on: immortalized human sebocytes; details: cited from earlier work
# [6] = 5 ul of 5.0% w/w solution, 48-hour exposure
# human vanilloid receptor type 1 (VR1), sequence (Q8NER1 whole entry): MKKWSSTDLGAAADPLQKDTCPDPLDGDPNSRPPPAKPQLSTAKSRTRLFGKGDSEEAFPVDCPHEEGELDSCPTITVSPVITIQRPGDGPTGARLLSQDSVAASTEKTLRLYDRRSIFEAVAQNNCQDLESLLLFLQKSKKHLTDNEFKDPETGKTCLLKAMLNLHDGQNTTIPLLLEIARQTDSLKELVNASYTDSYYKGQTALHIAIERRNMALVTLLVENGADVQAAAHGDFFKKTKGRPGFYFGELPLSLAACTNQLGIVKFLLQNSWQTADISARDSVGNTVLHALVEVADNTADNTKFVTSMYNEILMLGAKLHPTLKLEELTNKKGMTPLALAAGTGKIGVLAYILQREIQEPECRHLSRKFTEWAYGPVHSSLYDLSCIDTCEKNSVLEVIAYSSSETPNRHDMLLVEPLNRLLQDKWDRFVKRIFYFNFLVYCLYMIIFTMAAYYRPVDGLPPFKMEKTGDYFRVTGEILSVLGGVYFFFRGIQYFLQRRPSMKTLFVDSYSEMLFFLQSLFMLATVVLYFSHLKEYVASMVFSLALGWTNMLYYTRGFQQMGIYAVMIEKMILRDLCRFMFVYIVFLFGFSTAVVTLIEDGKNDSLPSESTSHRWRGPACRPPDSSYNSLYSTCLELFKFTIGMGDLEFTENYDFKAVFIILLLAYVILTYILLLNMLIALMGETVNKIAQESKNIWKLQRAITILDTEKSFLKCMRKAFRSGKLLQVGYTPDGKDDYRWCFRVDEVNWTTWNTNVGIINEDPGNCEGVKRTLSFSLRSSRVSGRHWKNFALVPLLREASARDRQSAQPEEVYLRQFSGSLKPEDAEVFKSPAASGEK
structure (smiles),measurement,setting,value
"C=C(C)C1CCC(C)=CC1c1c(O)cc(CCCCC)cc1O (stereo not drawn) [CBD, 2-[3-methyl-6-(1-methylethenyl)-2-cyclohexen-1-yl]-5-pentyl-1,3-benzenediol]",effect on human vanilloid receptor type 1 (VR1),[1],stimulate
same,effect on cardiac inflammation,cardiac inflammation,attenuated cardiac inflammation
same,CBD in the receptor phase (skin permeation),[2]; [6],< 278 ng/cm^2
same,"CBD in the receptor phase (skin permeation), percent of applied dose",[2]; [6],less than 0.081%
same,dermal deposition of CBD,[2]; 48-hour period,4.54 % of the applied dose
same,dermis concentration,[2]; 48-hour period,"8,408 ng/cm^2"
same,dermis concentration per tissue,[2]; 48-hour period,"1,933 ng/g of tissue"
same,"dermis concentration, volume equivalent",[2]; 48-hour period,"~1,933 ng/mL"
same,epidermal deposition of CBD,[2]; 48-hour period,13.17 % of the applied dose
same,effect on airway obstruction,airway obstruction,reduced airway obstruction
same,effect on anandamide,anandamide,inhibit
same,subjects with circulating levels of CBD,"[3]; Day 35 visit, 7 days after final dose",Nine
same,study drug (CBD) plasma levels,"[3]; throughout the study, 225 mg CBD per day",low
same,mean pre-dose CBD level Day 21,[4]; Cohort 1: 1 mL QD,0.545 ng/mL
same,mean pre-dose CBD level Day 21,[4]; Cohort 2: 1 mL BID,0.770 ng/mL
same,mean CBD trough level Day 15,[4]; Cohort 2: 1 mL BID,0.781 ng/mL
same,mean pre-dose CBD level Day 21,[4]; Cohort 3: 3 mL QD,0.715 ng/mL
same,mean CBD trough level Day 15,[4]; Cohort 3: 3 mL QD,0.525 ng/mL
same,CBD trough level Day 15 of the outlier subject,"[4]; Cohort 4, one subject",5.99 ng/mL
same,mean pre-dose CBD level Day 21,[4]; Cohort 4: 3 mL BID,1.553 ng/mL
same,mean CBD trough level Day 15,"[4]; Cohort 4: 3 mL BID, all subjects",2.11 ng/mL
same,mean CBD trough level Day 15 without outlier subject,"[4]; Cohort 4: 3 mL BID, one outlier excluded",1.16 ng/mL
same,"Cmax Day 21 relative to Day 1 Cmax, mean",[4]; accumulation after 14 days dosing,1.92 times
same,effects on immortalized human sebocytes,[5],"lipostatic, anti-proliferative, and anti-inflammatory effects"
